The text below walks through data of patent publication US7476670B2, “Purine derivatives, method for preparing, pharmaceutical compositions and novel use” (Aventis Pharma S.A., priority 2003, dated 2009).

What all share (assay type): biochemical
Experiment [1] deals with T1, ZAP kinase (Homo sapiens, UniProt P43403).
T1 construct: purchased Panvera P2782
T1 sequence (P43403 1-619): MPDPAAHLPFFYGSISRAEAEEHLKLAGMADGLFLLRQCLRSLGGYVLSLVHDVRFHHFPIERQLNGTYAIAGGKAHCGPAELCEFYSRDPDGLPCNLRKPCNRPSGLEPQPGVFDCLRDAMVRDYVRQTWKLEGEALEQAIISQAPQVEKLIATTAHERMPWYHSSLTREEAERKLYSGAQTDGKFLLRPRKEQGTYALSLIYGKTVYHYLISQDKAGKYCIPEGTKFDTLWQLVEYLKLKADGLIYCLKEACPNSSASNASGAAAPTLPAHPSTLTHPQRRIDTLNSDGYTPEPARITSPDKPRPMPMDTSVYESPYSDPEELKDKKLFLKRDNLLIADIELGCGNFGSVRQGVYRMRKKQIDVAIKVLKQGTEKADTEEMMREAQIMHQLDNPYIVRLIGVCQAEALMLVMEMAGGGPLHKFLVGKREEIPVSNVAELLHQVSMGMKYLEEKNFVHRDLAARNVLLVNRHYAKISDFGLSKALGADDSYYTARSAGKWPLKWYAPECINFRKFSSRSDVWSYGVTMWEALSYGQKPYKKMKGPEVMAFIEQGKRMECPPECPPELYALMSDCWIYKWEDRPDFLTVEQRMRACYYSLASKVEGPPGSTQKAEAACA
As to the kind of experiment: Assay for inhibition of ZAP kinase activity. To be noted: fluorescence polarization, read-out: percentage inhibition at 20 μM. As to the method:
The inhibition of the kinase activity is determined by fluorescence polarization, the ZAP kinase phosphorylates a peptide detected by adding an anti-phosphopeptide antibody coupled to a fluorescent label.
The assay is carried out in a final volume of 50 μl; all the reagents are prepared in a buffer: • 20 mM Tris/HCl pH 7.7 • 7 mM MnCl2 • 50 μM Na2VO4 5 μl of the 10-times concentrated inhibitor are added to 25 μl of enzyme (0.7 μg/ml final concentration) (Panvera ref P2782). After incubation for 5 minutes at ambient temperature, 10 μl of PolyGT (300 ng/ml final concentration) and 10 μl of ATP (0.25 μM final concentration) are added. The detection is carried out after incubation for 15 minutes at ambient temperature. • Results obtained expressed as percentage inhibition at 20 μM • Example 8 98% • Example 20 95% • Example 24 96% 7) Assay for Inhibition of Casein Kinase II Activity

Experiment [2] addresses AKT kinase (Homo sapiens, UniProt P31749). The experiment in a line: Assay for inhibition of AKT activity. To be noted: fluorescence polarization, ATP 80 μM; read-out: IC50s expressed as micromolar. On the procedure:
The inhibition of the kinase activity is determined by fluorescence polarization, the AKT kinase phosphorylates a peptide detected by adding an anti-phosphopeptide antibody coupled to a fluorescent label.
The assay is carried out in a final volume of 30 μl; all the reagents are prepared in a buffer: • 50 mM HEPES pH 7.5 • 0.03% triton X100 • 10 mM MgCl2 • 5% Glycerol • 1 mM DTT 10 μl of the 10-times concentrated inhibitor are added to 5 μl of enzyme (20 ng final concentration), and 5 μl of peptide (1 μM final concentration) and 10 μl of ATP (80 μM. final concentration) are added.
On the technique in general: In fluorescence polarisation assays a small probe gives low polarisation when free and higher when bound to something large.

Experiment [3] concerns CAN Kinase II. The experiment in a line: Assay for inhibition for CAN kinase II activity. The settings on record: [33P]ATP, calmodulin. On the procedure: The inhibition of the kinase activity is determined by. measuring the phosphorylation of its substrate peptide.
The assay is carried out in a final volume of 50 μl.
The incubation buffer is as follows:
• 20 mM MOPS pH 7.4 • 5 mM MgCl2 • 5 mM CaCl2 • 1 mM DTT • 100 μM Na2VO4 • 25 mM Beta-glycerophosphate 5 μl of the 10-times concentrated inhibitor are added to 25 μl of incubation buffer containing 0.2 μg/μl final concentration of the enzyme (Tebu, SE-134); 10 μl of incubation buffer containing 5 μM final concentration of substrate and 1600 U/ml final concentration of calmodulin are then added and, finally, 10 μl of incubation buffer containing 20 μM ATP and radiolabeled ATP, [^33P]ATP (0.05 μCi), are added. The reaction is stopped after incubation for 40 minutes at ambient temperature. • Results obtained expressed as percentage inhibition at 20 μM • Example 30 98% 9) Assay for Inhibition of EGF tyr Kinase Activity

pIC50: −log10 of the molar value.

As a reminder, the inhibition is the percentage by which the read-out fell short of the control.

Sequence of AKT kinase (P31749 whole entry): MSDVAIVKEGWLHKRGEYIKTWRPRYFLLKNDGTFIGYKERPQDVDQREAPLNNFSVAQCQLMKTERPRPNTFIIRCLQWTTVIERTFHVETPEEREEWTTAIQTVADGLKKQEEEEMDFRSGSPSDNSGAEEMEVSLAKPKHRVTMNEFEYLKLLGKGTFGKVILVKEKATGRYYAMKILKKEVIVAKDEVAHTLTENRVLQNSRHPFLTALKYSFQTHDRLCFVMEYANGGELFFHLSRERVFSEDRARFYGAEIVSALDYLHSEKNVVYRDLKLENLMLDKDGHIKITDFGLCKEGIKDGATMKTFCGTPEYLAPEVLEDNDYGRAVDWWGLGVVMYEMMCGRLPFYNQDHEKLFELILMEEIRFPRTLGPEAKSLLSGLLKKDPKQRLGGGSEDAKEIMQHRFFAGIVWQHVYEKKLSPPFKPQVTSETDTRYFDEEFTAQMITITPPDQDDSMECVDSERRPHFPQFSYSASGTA

Take `Cl.N[C@H]1CC[C@H](Nc2nc(-n3cnc4cc(Cl)c(Cl)cc43)c3nc[nH]c3n2)CC1` [Example 8, Trans-N-[6-(5,6-dichloro-1H-benzimidazol-1-yl)-9H-purin-2-yl]-1,4-cyclohexanediamine hydrochloride]: the inhibition at 20 µM in experiment [1] worked out at 98%. Besides, in experiment [2], the pIC50 is 6.34.
Regarding `Cl.Cl.N[C@H]1CC[C@H](Nc2nc(N3CCc4cc([N+](=O)[O-])ccc43)c3nc[nH]c3n2)CC1` [Example 30, Trans-N-[6-(2,3-dihydro-5-nitro-1H-indol-1-yl)-9H-purin-2-yl]-1,4-cyclohexanediamine dihydrochloride], in experiment [3], the “percentage inhibition at 20 μM” value is reported as 98%.
